Measured values as given in ChEMBL document CHEMBL4680099, “Discovery of Leucyladenylate Sulfamates as Novel Leucyl-tRNA Synthetase (LRS)-Targeted Mammalian Target of Rapamycin Complex 1 (mTORC1) Inhibitors” (J Med Chem, 2016).
Active and inactive are the calls of the source. The calls are words filed in the database; no cut-off is given here.

What was measured:
[1] = test system: A549; assay: Cytotoxicity in human A549 cells by sulforhodamine B colorimetric assay; assay type: functional, cell-based
[2] = test system: HCT-116; assay: Cytotoxicity in human HCT-116 cells by sulforhodamine B colorimetric assay; assay type: functional, cell-based
[3] = test system: K562; assay: Cytotoxicity in human K562 cells by sulforhodamine B colorimetric assay; assay type: functional, cell-based
[4] = test system: MDA-MB-231; assay: Cytotoxicity in human MDA-MB-231 cells by sulforhodamine B colorimetric assay; assay type: functional, cell-based
[5] = test system: SK-HEP1; assay: Cytotoxicity in human SK-HEP1 cells by sulforhodamine B colorimetric assay; assay type: functional, cell-based
[6] = test system: SNU-638; assay: Cytotoxicity in human SNU-638 cells by sulforhodamine B colorimetric assay; assay type: functional, cell-based
[7] = molecular target: T1, mTORC1 (Homo sapiens) (UniProt P42345+Q8N122+Q9BVC4); settings: HEK293, dose 100.0 nM
Description: Inhibition of mTORC1 activation in HEK293 cells assessed as reduction leucine-induced S6K phosphorylation at 100 nM by immunoblotting analysis

[8] = molecular target: T2, Leucine--tRNA ligase, cytoplasmic (Homo sapiens, UniProt Q9P2J5); assay: Inhibition of catalytic activity of LRS (unknown origin) by aminoleucylation assay
Target sequence in this assay (Q9P2J5 whole entry): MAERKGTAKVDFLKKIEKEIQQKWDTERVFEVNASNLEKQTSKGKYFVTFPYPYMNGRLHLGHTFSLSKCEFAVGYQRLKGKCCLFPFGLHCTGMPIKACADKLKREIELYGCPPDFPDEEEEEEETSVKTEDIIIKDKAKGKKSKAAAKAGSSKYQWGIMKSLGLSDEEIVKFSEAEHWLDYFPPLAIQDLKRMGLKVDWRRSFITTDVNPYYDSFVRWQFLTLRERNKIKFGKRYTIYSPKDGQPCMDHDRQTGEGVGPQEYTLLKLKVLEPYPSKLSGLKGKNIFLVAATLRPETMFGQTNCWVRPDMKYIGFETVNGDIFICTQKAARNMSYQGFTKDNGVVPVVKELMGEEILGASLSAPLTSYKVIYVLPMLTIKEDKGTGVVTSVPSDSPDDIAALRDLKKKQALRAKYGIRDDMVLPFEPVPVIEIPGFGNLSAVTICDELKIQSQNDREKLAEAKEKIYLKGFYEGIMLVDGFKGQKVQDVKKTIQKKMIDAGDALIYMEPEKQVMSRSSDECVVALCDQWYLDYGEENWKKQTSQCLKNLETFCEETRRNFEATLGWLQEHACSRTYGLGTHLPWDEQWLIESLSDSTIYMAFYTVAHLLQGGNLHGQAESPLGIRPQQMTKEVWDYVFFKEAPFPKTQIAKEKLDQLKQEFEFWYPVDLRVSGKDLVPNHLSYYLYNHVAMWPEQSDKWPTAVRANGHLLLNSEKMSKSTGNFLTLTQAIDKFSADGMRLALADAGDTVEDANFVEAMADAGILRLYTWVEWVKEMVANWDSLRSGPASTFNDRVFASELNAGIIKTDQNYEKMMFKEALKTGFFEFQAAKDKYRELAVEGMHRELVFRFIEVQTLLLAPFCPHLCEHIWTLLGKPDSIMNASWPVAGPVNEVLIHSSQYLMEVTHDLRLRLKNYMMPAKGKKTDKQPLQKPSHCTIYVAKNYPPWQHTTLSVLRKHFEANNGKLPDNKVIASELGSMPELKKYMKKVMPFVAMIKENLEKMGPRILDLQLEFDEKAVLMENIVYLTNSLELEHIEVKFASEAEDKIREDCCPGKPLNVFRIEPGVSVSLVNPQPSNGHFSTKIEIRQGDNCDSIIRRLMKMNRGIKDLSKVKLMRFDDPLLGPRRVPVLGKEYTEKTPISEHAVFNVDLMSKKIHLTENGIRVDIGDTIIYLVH

[9] = molecular target: T2, Leucine--tRNA ligase, cytoplasmic; assay: Inhibition of catalytic activity of LRS in HEK293 cells assessed as reduction in mTORC1 activation by measuring leucine-induced S6K phosphorylation at 12.5 to 200 uM by immunoblotting analysis; assay type: cell-based; settings: dose 12.5-200 µM
Target sequence in this assay (Q9P2J5 whole entry, looked up): as the sequence (Q9P2J5 whole entry) above

[10] = molecular target: T1, mTORC1 (Homo sapiens); assay: Inhibition of flag-tagged mTORC1 (unknown origin) at 200 uM; assay type: protein-complex assay
[11] = test system: MRC5; assay: Cytotoxicity in human MRC5 cells by sulforhodamine B colorimetric assay; assay type: cell-based

T1 sequence (Q8N122 whole entry, looked up, other chains not shown): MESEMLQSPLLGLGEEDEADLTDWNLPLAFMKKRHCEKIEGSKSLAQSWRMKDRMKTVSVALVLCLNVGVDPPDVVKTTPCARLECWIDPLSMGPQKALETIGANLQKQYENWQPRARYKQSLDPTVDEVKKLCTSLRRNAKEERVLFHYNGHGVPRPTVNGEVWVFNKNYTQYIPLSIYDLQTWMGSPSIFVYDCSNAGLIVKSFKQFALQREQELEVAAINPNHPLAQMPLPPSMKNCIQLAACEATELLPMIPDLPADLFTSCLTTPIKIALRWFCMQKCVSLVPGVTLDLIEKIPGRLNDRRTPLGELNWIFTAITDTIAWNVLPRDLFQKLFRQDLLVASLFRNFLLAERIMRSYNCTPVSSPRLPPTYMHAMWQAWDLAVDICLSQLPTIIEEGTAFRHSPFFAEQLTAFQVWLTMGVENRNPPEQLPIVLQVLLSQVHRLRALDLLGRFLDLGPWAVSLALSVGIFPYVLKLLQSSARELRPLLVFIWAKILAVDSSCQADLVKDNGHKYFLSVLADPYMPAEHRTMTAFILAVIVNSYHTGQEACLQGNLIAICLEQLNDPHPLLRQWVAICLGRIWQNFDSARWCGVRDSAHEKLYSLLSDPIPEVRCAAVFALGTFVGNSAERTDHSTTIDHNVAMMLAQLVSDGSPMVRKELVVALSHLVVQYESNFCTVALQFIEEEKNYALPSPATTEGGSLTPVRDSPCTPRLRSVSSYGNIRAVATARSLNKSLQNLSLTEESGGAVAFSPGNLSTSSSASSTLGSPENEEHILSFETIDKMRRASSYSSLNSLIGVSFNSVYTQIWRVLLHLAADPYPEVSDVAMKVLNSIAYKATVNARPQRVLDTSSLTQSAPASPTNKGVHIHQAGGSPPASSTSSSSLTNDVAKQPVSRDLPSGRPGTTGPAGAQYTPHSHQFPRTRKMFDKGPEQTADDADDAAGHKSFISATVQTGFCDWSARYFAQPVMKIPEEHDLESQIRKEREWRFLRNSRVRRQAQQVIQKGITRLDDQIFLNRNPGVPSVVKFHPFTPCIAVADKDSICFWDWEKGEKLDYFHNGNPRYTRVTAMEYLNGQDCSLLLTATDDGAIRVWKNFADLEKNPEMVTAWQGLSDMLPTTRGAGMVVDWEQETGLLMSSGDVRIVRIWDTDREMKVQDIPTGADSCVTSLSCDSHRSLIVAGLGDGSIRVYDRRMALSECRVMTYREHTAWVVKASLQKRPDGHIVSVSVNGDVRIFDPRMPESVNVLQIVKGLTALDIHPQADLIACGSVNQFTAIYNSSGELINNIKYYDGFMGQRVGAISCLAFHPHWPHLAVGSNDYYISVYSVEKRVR
T1 sequence (Q9BVC4 whole entry, looked up, other chains not shown): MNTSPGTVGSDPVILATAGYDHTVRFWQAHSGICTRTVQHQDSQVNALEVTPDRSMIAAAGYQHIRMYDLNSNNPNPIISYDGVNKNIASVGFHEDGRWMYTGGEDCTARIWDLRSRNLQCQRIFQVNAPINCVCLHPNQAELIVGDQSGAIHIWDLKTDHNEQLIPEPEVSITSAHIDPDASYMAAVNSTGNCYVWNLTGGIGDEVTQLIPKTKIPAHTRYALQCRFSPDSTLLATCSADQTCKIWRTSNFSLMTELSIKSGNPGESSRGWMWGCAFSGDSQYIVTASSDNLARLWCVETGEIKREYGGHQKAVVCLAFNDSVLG

Row | SMILES | IC50 [1] [µM] | IC50 [2] [µM] | IC50 [3] [µM] | IC50 [4] [µM] | IC50 [5] [µM] | IC50 [6] [µM] | inhibition [7] | IC50 [8] [µM] | inhibition [9] | inhibition [10] | IC50 [11] [µM]
1 | COc1cc([C@@H]2c3cc4c(cc3[C@@H](O[C@@H]3O[C@@H]5CO[C@@H](C)O[C@H]5[C@H](O)[C@H]3O)[C@H]3COC(=O)[C@H]23)OCO4)cc(OC)c1O [ETOPOSIDE] | 0.24 | 1.25 | 1.79 | 7.35 | 0.25 | 0.56 |  |  |  |  | 
2 | CO[C@H]1C[C@@H]2CC[C@@H](C)[C@@](O)(O2)C(=O)C(=O)N2CCCC[C@H]2C(=O)O[C@H]([C@H](C)C[C@@H]2CC[C@@H](O)[C@H](OC)C2)CC(=O)[C@H](C)/C=C(\C)[C@@H](O)[C@@H](OC)C(=O)[C@H](C)C[C@H](C)/C=C/C=C/C=C/1C |  |  |  |  |  |  | Active |  |  |  | 
3 | CC(C)C[C@H](O)C(=O)NS(=O)(=O)OC[C@H]1O[C@@H](n2cnc3c(N)nc(I)nc32)[C@H](O)[C@@H]1O | 1.75 | 0.54 | 1.06 | 12.6 | 5.63 | 5.7 |  | 0.337 | Dose-dependent effect | inactive | > 50
4 | CC(C)C[C@H](N)C(=O)NS(=O)(=O)OC[C@H]1O[C@@H](n2cnc3c(N)ncnc32)[C@H](O)[C@@H]1O [LEUSA] | 0.59 | 0.24 | 0.4 | 0.73 | 0.54 | 0.84 |  | 0.0223 | inactive |  | 5.9
5 | CC(C)[C@@H](O)[C@H](O)C(=O)NS(=O)(=O)OC[C@H]1O[C@@H](n2cnc3c(N)ncnc32)[C@H](O)[C@@H]1O | 1.64 | 1.44 | 2.22 | 7.01 | 6.81 | 8.98 |  | 0.07 | Dose-dependent effect | inactive | > 50
